Laboratory results: patent US20040142322A1, “Continuous non-radioactive polymerase assay” (priority 2002, published 2004)

Columns and labels:
Type in all cases: biochemical
HCV NS5B = biological target: T1, HCV NS5B (Hepatitis C virus genotype 1b, UniProt P26663); assay: Continuous non-radioactive (luciferase-coupled) NS5B polymerase assay, inhibitor test; settings: NS5B 20 nM, GTP 1 μM, inhibitor 0.1-2.5 μM, FIG. 3
T1 construct: The HCV NS5BΔ55 enzyme was prepared as described by Ferrari et al; made in house
Description: Polymerase assays were performed at room temperature using a 100 μl reaction mix in a 96-well plate. Final reaction conditions for NS5B were modified from those used by Ferrari et al. J. Virol. 73:1649-54 (1999) [20 mM Hepes pH 7.3; 7.5 mM DTT; 20 U/ml RNAsin; 0.5 μg/ml oligo(G)12; 5 μg/ml poly(C); 1 μM GTP; 10 mM MgCl2; 60 mM NaCl; 100 μg/ml BSA; and NS5B]. NS5B assay mixtures were supplemented with components for the ATP sulfurylase and luciferase coupled enzyme reactions [0.5 mM coenzyme A (CoA); 310 μM D-luciferin; 1 nM luciferase; 5 μM APS; 0.03-0.3 U ATP sulfurylase (see Brief Description of the Drawings for specific conditions)]. […]
To test the effect of inhibitors on the NS5B polymerase reaction, compounds were diluted in the appropriate diluents and added to the GTP-containing mixture. Microtiter plates containing the reaction samples were immediately transferred to the luminometer for detection of the light signal generated over time, taking a 0.2-1.0 s reading of each well every 30-60 s (time intervals depend on the number of samples tested). Readings were monitored in comparison to a no-NS5B reaction as a control for ATP generation in the absence of polymerase activity. […]

firefly luciferase [1] = biological target: T2, firefly luciferase (Photinus pyralis, UniProt P08659)
T2 construct: purchased Promega (Madison, Wis.)
Description: (§1) To test the effect of NTPs on the ATP sulfurylase/luciferase coupled read-out system, control reactions for NS5B assays (with 0.3 U ATP sulfurylase) were assembled as above omitting RdRp and RNA. Reactions were initiated by addition of nucleotide (1 μM final). To reduce free PPi in commercial NTPs, 10 mM stocks were pretreated with inorganic pyrophosphatase. A 10 μl aliquot of the NTP stock was incubated with 0.5 U of thermostable inorganic pyrophosphatase for 10 minutes at 75° C.; untreated NTP samples were processed in parallel as controls. Treated and untreated NTPs were diluted to 100 μM working stocks for subsequent assays.
(§2) Another possible source of background is direct utilization of the NTPs by the ATP sulfurylase/luciferase cascade. To address this possibility, reactions without either RdRp or template were examined.

firefly luciferase [2] = settings: reactions without RdRp or template, nucleotide 1 μM final
Description: as §1, §2

T2 sequence (P08659 whole entry): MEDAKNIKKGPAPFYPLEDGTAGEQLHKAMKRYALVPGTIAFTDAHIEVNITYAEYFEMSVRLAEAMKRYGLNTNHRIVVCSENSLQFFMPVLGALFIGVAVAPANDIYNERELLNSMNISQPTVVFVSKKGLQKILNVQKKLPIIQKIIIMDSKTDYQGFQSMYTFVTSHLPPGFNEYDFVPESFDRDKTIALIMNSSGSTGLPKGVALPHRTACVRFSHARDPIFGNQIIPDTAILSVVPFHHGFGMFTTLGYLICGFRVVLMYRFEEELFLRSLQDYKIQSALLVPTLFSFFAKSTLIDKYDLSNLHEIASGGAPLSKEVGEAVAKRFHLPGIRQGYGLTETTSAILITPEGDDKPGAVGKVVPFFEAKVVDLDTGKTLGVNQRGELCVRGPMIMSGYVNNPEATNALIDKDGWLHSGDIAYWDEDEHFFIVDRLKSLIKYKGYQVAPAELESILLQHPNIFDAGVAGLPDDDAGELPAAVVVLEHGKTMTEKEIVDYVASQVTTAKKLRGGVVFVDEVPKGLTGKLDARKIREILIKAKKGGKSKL
T1 sequence (P26663 2420-2955): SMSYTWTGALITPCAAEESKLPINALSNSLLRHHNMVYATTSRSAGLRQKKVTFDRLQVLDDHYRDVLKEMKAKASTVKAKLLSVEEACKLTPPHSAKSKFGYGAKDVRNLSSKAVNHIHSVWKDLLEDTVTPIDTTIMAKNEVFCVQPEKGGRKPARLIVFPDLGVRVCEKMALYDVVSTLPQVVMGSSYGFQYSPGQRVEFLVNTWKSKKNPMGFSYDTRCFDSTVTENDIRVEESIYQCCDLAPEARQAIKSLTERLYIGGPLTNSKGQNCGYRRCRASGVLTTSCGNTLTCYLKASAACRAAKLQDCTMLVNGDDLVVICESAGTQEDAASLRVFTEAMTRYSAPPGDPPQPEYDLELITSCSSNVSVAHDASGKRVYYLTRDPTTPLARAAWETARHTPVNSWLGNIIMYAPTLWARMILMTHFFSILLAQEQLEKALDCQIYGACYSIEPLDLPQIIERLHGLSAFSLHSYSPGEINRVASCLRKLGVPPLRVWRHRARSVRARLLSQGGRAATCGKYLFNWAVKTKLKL

## Nc1nc2c(ncn2[C@@H]2O[C@H](COP(=O)(O)OP(=O)(O)OP(=O)(O)O)C[C@H]2O)c(=O)[nH]1 [3′-deoxyguanosine-5′ triphosphate]
HCV NS5B; 30 minute reaction
  Inhibition of NS5B activity (reduced levels of light generated): Dose- and time-dependent inhibition
HCV NS5B
  Mode of inhibition from progress curves: consistent with chain termination

## Nc1ncnc2c1ncn2[C@@H]1O[C@H](COP(=O)(O)OP(=O)(O)OP(=O)(O)O)[C@@H](O)[C@H]1O [ATP, Adenosine 5′-triphosphate]
Firefly luciferase [1]; read-out: Km for the luciferase reaction, under these experimental conditions, data not shown
  Km: 0.65 ± 0.04 µM

## Nc1ncnc2c1ncn2[C@@H]1O[C@H](COP(O)(=S)OP(=O)(O)OP(=O)(O)O)[C@@H](O)[C@H]1O (stereo partly shown) [ATPαS]
Firefly luciferase [2]
  Utilization of NTP as substrate by the ATP sulfurylase/luciferase cascade (background signal): poor substrate for luciferase

## Nc1nc2c(ncn2[C@@H]2O[C@H](COP(=O)(O)OP(=O)(O)OP(=O)(O)O)[C@@H](O)[C@H]2O)c(=O)[nH]1 [GTP]
Firefly luciferase [2]
  Utilization of NTP as substrate by the ATP sulfurylase/luciferase cascade (background signal): lowest level of signal

## O=P(O)(O)OP(=O)(O)OP(=O)(O)OC[C@H]1O[C@@H](n2cnc3c(O)ncnc32)[C@H](O)[C@@H]1O [Inosine triphosphate (ITP), Inosine triphosphate]
Firefly luciferase [2]
  Utilization of NTP as substrate by the ATP sulfurylase/luciferase cascade (background signal): relatively good luciferase substrate
Firefly luciferase [1]; reactions without RdRp or template, nucleotide 1 μM final
  Luciferase substrate quality relative to GTP: about 10 fold
